Experimental data taken from PMC7287671, “Anticancer Ruthenium Complexes with HDAC Isoform Selectivity” (Molecules, 2020).

Key:
HDAC1 = target: T1, HDAC1 (Homo sapiens, UniProt Q13547); experiment: HDAC1 fluorimetric enzyme inhibition assay (BPS Bioscience kit); type: biochemical; conditions: for Percentage HDAC1 activity: activity relative to control with no added inhibitor
T1 construct: FLAG; His; purchased BPS Bioscience
Procedure: (§1) These isoforms were chosen as they provide contrasting binding topographies, and HDAC6 in particular is closely linked with cancer metastasis (Figure 2).
(§2) 5. Enzyme Inhibition Assay
(§3) HDAC enzyme inhibition assays were carried out for as stated using commercially available assay kits (BPS Bioscience ) and undertaken in a 96 well plate. All measurements were carried out in triplicate and standard deviation errors are included in the plots. Human recombinant enzymes HDAC1 FLAG-tag His-tag and HDAC6 GST-tag were used. Potential inhibitors were dosed at the required concentration […]
(§4) NaCl, 2.7 mM KCl, 1 mM MgCl 2). A master mixture was made using assay buffer, acetylated substrate specific to HDAC enzyme (200 µM) and BSA (1 mg/mL) in a ratio of buffer:substrate:BSA (6:1:1) and 40 µL added to each well plate. Buffer (10 µL) was added to all blank wells and inhibitor (5 µL) was added to all potential inhibitor wells. HDAC enzymes were diluted based on their stated activity and 5 µL was added to all wells except blanks and the plate incubated at 37 °C for 30 min. Developer was added and the mixture incubated at room temperature for a further 15 min. Fluorescence was measured […]
(§5) Percentage HDAC activity is […]
(§6) determined by quantification of fluorescence relative to control, with no added inhibitor.
(§7) IC 50 values are calculated using least squares regression fitting to equation S2, where Y = calculated HDAC activity at given concentration, X = concentration of inhibitor, a = gradient scaling factor and SP = saturation point (i.e. 100% activity). Errors calculated using the formula for standard […]
(§8) Y = ୣ୶୮ (௔×(௑ିூ ఱబ)) × SP (S2)
(§9) All assays carried out in […]

HDAC6 = target: T2, HDAC6 (Homo sapiens, UniProt Q9UBN7); experiment: HDAC6 fluorimetric enzyme inhibition assay (BPS Bioscience kit); type: biochemical; conditions: for Percentage HDAC6 activity: activity relative to control with no added inhibitor
T2 construct: GST; purchased BPS Bioscience
T2 sequence (Q9UBN7 1-1215): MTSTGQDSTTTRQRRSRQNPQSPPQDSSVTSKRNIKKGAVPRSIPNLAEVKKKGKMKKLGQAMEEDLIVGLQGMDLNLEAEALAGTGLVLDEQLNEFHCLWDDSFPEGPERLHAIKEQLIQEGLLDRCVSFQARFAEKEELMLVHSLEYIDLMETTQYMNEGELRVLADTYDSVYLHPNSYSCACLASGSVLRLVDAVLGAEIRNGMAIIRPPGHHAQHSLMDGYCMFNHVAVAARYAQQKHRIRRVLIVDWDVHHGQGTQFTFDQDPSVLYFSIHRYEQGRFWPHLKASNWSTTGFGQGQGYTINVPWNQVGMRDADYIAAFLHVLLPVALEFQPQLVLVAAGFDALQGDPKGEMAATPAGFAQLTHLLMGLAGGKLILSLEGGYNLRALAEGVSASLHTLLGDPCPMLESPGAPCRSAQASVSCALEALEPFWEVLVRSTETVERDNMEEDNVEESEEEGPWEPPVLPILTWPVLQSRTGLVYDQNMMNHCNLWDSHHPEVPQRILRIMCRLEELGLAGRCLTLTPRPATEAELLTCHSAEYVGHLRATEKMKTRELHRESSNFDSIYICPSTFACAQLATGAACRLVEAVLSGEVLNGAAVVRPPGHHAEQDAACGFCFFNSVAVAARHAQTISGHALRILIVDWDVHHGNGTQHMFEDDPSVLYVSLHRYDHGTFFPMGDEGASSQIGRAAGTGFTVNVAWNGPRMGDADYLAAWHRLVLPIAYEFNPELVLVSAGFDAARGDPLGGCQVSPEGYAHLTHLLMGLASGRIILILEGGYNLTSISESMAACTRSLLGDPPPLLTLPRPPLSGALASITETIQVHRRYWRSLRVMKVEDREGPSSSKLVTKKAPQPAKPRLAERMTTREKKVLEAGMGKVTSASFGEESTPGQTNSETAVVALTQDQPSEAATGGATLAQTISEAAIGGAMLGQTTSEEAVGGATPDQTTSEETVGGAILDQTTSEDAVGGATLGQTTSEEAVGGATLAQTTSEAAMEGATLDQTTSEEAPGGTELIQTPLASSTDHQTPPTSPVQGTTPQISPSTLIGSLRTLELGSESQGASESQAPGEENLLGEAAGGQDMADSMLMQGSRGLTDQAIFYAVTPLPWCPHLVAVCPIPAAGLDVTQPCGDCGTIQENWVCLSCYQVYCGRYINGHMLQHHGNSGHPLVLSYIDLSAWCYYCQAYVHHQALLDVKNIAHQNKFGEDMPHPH
Procedure: as §1, §2, §3, §4, §5, §6, §7, §8, §9

[1] = system: MCF7 human breast adenocarcinoma cell line; experiment: Cell viability assay (ChemoMetec Via1-Cassette); type: cell-based; conditions: MCF7, 96 h, triplicate
Procedure: viable cells. The experiments were carried out in triplicate.

T1 sequence (Q13547 whole entry): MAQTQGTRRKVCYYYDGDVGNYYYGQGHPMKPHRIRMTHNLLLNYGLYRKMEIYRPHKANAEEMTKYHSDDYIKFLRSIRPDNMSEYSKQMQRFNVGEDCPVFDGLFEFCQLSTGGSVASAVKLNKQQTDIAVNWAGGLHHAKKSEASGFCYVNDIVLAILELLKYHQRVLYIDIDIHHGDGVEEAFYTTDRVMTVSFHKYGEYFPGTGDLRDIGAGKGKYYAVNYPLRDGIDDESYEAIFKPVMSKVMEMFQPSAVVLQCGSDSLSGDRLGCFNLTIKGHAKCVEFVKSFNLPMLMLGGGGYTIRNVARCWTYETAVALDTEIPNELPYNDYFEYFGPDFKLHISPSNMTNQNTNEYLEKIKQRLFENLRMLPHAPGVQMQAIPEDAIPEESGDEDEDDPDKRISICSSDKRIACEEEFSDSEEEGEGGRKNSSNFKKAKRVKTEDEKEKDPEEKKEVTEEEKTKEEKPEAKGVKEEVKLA

Row | Structure (SMILES) | Percentage HDAC1 activity (HDAC1; 0.1 uM inhibitor) [%] | Percentage HDAC1 activity (HDAC1; 1 uM inhibitor) [%] | Percentage HDAC6 activity (HDAC6; 0.1 uM inhibitor) [%] | Percentage HDAC6 activity (HDAC6; 1 uM inhibitor) [%] | IC50 (HDAC1; human recombinant HDAC1 FLAG-tag His-tag, triplicate) [nM] | EC50 [1] [nM] | IC50 (HDAC6; human recombinant HDAC6 GST-tag, triplicate) [nM] | Selectivity Factor (HDAC6; ratio of the IC50 values for HDAC1 and HDAC6)
1 | O=C(CCCCCCC(=O)Nc1ccccc1)NO [SAHA, suberanilohydroxamic acid, reference compound] | 70 ± 15 | 12 ± 7 | 22 ± 1 | 4 ± 2 | – | – | – | –
2 | O=C(CCCCCCC(=O)Nc1cc2cccnc2c2ncccc12)NO [L^1] | 44 ± 7 | 6 ± 13 | 17 ± 3 | 1.5 ± 1 | 105 ± 15 | 3000 ± 600 | 41 ± 2 | 2.6
